Results: a melting point compilation (Tetko et al.; mined from patent text by program, amines drawn as free bases though some values may be those of a salt)

Compared with `COc1c(O)ccc2cc(-c3ccc(O)cc3)ccc12`, `COc1ccc2cc(-c3cccc(C=O)c3)cc(CCNC(C)=O)c2c1` is lower in melting point: 204 to 206 °C for the first, 123 to 125 °C for the second.

First: O=C(O)Cc1cc2c(c(C(=O)O)c1)NCCC2
Second: O=C(O)c1cc(-n2c(-c3ccc([N+](=O)[O-])cc3)cc3c2CCCC3)ccc1O
The melting point of the first is lower: 210 to 211 °C for the first, 241 to 242 °C for the second.

First: Nn1cc(Br)c(=O)[nH]c1=O
Second: CCCC1=C([N+](=O)[O-])C(c2ccccc2Br)c2c[nH]nc2N1 (centres undefined)
The melting point of the first is lower: 214 to 215 °C for the first, 226 °C for the second.

`CCOC(=O)Cc1ccc(NC(=O)C(CO)NS(=O)(=O)c2ccc(F)cc2)cc1` (racemic) and `CCCc1ccc(Oc2ccc3c(c2)C=C(C(=O)O)CCS3(=O)=O)cc1` cannot be ordered by melting point: 148 to 150 °C for the first, 147 to 149 °C for the second.

Compared with `CCCC[C@]1(CC)CS(=O)(=O)c2cc(OC)c(OC)cc2[C@@H](c2ccccc2)N1O`, `Cc1nc(N2CCN(Cc3ccccc3)C2=O)sc1C(=O)NCc1cc(F)cc(F)c1` is higher in melting point: 174 to 175 °C for the first, 208 to 209 °C for the second.

First: O=C1C(Cc2ccccc2)C(C(F)(F)F)Nc2ccccc2N1Cc1ccccc1 (centres undefined)
Second: O=C(O)C1CC(c2ccccc2)=NN1C(=O)CP(=O)(O)CCCCc1ccccc1 (single isomer, unassigned; (+))
The melting point of the first is lower: 150 to 151 °C for the first, 166 to 169 °C for the second.

Compared with `O=C(CCCN1CCC(c2noc3cc(F)ccc23)CC1)c1cc2c(s1)CCCNC2=O`, `O=C1NCCNc2c1sc1ccccc21` is higher in melting point: 142 to 143 °C for the first, 210 to 212 °C for the second.

First: COc1ccc2c(C(=O)N(CC(=O)O)C(=O)N(C)C)cccc2c1C(F)(F)F
Second: COc1cc(OCC(=O)O)c(C)cc1SCc1sc(-c2ccc(C(F)(F)F)cc2)nc1C
The melting point of the first is lower: 145 to 147 °C for the first, 211 to 213 °C for the second.

Compared with `CC1(C)Oc2ccc(I)cc2[C@@H](N2Cc3ccccc3C2=O)[C@@H]1O` (relative stereo), `CCOC(=O)c1c(-c2ccccc2)c(Cc2cccc(F)c2C)cn1N` is lower in melting point: 224 to 228 °C for the first, 87 to 88 °C for the second.

First: COc1ccccc1N1CCN(c2nc3c(cc2F)c(=O)c(C(=O)O)cn3-c2ccc(F)cc2)CC1
Second: COc1cc2ncnc(N3CCN(C(=O)Nc4ccc(CN5CCCCC5)cc4)CC3)c2cc1OC
The melting point of the first is higher: 272 to 273 °C for the first, 122 to 123 °C for the second.

First: Cc1c(C(=O)O)cnn1-c1ccc(F)c(F)c1
Second: Cc1c2c(nc3ccccc13)CCN(C(=O)c1ccc(Cl)cc1)CC2
The melting point of the first is lower: 148 °C for the first, 163 °C for the second.

First: c1ccc2c(c1)Oc1ccccc1-n1nnnc1-2
Second: Clc1ccc(NN=Cc2ccccc2)cc1
The melting point of the first is higher: 206 to 208 °C for the first, 122 to 123 °C for the second.

First: CCCn1c(=O)c2c(nc(/C=C/c3ccc(O)c(OC)c3)n2C)n(CCC)c1=O
Second: COc1ccc(C(=O)C=Cc2cc(O)c(O)c([N+](=O)[O-])c2)cc1
The melting point of the first is lower: 187 to 188 °C for the first, 222 to 228 °C for the second.

First: CCCCCCCCCCCCc1ccc(S(=O)(=O)Cl)cc1
Second: CCCCCCN(C)c1ccc(C=C2SC(=S)N(CC(=O)NS(C)(=O)=O)C2=O)cc1
The melting point of the first is lower: 33 to 35 °C for the first, 227 to 230 °C for the second.

Compared with `COc1cccc(OC)c1N(COC(C)C)C(=O)CCl`, `CC(C)OC(=O)NC1(c2ccccc2Cl)CCCCC1=O` (centres undefined) is higher in melting point: 85 to 90 °C for the first, 124 to 126 °C for the second.

First: CCCc1c(OCCCOc2c(C(C)=O)ccc(OCCCC(=O)O)c2CCC)ccc(C(C)=O)c1O
Second: OCCOc1ccc(-c2nc(-c3ccc(OCCO)cc3O)nc(-c3ccc(OCCO)cc3O)n2)c(O)c1
The melting point of the first is lower: 96 to 99 °C for the first, 195 °C for the second.

First: COP(=S)(OC)Oc1nsc(SC)n1
Second: CNC(=O)ON=C1SCC(=O)N1CCOC
The melting point of the first is lower: 45 °C for the first, 153 to 155 °C for the second.

Compared with `Cc1cc2nc(OC(C)C)nc(-c3cccc(C(F)(F)F)c3)c2s1`, `CCOC(=O)c1cc2c(nc1C)C(=Cc1cccs1)CCC2` is higher in melting point: 106 °C for the first, 117 to 118 °C for the second.

Compared with `COc1cc(Nc2nccc(-c3cccc(NCc4cccnc4)c3)n2)cc(OC)c1OC`, `CCN(CC)C(=O)c1cc(-c2ccc(OC)cc2)c2ccsc2c1` is higher in melting point: 78 to 80 °C for the first, 88 °C for the second.

First: CCNc1nnc(-c2ccc3ncn(-c4ccc(SC)cc4)c3c2)o1
Second: N#Cc1cc(Oc2ccc(Cl)c(Cl)c2)cnc1Cl
The melting point of the first is higher: 226 to 227 °C for the first, 76 to 78 °C for the second.

Compared with `O=C1C2=C(CCCC2)C(=O)N1c1ccc(Cl)c2c1CC(CBr)O2` (centres undefined), `CC(C)NC1=NS(=O)(=O)c2cccc(Cl)c2N1` is lower in melting point: 134 to 136 °C for the first, 124 to 125 °C for the second.

Compared with `CC(=O)OC1CCC2(C)C(CCC3C2CCC2(C)C3CCC2C(C)(O)C#N)C1` (centres undefined), `COC(=O)C1C2CCC(C2)C1N(C)S(=O)(=O)c1ccc(O)cc1` (centres undefined) is lower in melting point: 168 to 178 °C for the first, 163 to 164 °C for the second.

First: NC(=O)c1csc(C2OC(CO)C(O)C2O)n1 (centres undefined)
Second: CC(C)=CCC/C(C)=C/COCC(=O)c1cc(C(C)C)c(O)c(C(C)C)c1
The melting point of the first is higher: 142 to 144 °C for the first, 70 to 71 °C for the second.

First: O=CNc1ccccc1O
Second: CCOC(=O)N1CCN(c2ccncc2[N+](=O)[O-])CC1
The melting point of the first is higher: 129 °C for the first, 101 to 103 °C for the second.

`COCCOc1cc(N)c([N+](=O)[O-])cc1I` gave a melting point of 121 to 122 °C.
